# PubChem BioAssay AID248 (DTP/NCI, 2004)
# Several values for one entry are separate records, joined by “and”; a condition that tells them apart may be missing. Identical values can stand only once. Inconclusive results and toxic doses are left out.
# Tested on: L1210 leukemia ip in BDF1 mice, survival T/C
# Experiment: NCI In Vivo Anticancer Drug Screen. Data for tumor model L1210 Leukemia (intraperitoneal) in B6D2F1 (BDF1) mice
# Settings: endpoint: mean survival time, higher = longer survival
# In short: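 Transplanted-tumor mice were given test agent; controls received vehicle only. Survival readings from the two groups were divided (treated over control).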
# [1] = dose: 100.0 mg/kg/injection, schedule: Q04DX003 (ip), vehicle: Klucel (hydroxypropylcellulose) (HPC)
# [2] = dose: 200.0 mg/kg/injection, schedule: Q04DX003 (ip), vehicle: Klucel (hydroxypropylcellulose) (HPC)
# [3] = dose: 400.0 mg/kg/injection, schedule: Q04DX003 (ip), vehicle: Klucel (hydroxypropylcellulose) (HPC)
# [4] = dose: 100.0 mg/kg/injection, schedule: Q04DX002 (ip), vehicle: saline with Tween-80
# [5] = dose: 400.0 mg/kg/injection, schedule: Q01DX009 (ip), vehicle: saline
structure (smiles),measurement,setting,value
O=C(OCC(F)(F)C(F)(F)C(F)(F)C(F)F)c1ccccc1C(=O)OCC(F)(F)C(F)(F)C(F)(F)C(F)F,T/C,"dose: 50.0 mg/kg/injection, schedule: Q01DX001 (ip), vehicle: carboxymethylcellulose (CMC)",91 % of control
same,T/C,"dose: 100.0 mg/kg/injection, schedule: Q01DX001 (ip), vehicle: carboxymethylcellulose (CMC)",107 % of control
same,T/C,"dose: 200.0 mg/kg/injection, schedule: Q01DX001 (ip), vehicle: carboxymethylcellulose (CMC)",105 % of control
same,T/C,"dose: 400.0 mg/kg/injection, schedule: Q01DX001 (ip), vehicle: carboxymethylcellulose (CMC)",94 % of control
O=C(/C=C/c1ccccc1)N(c1ccccc1)C1CCCCC1,T/C,[1],112 % of control
same,T/C,[2],89 % of control
same,T/C,[3],88 % of control
COc1ccc(NC(=O)NC2CCCCC2)c(Cl)c1,T/C,"dose: 100.0 mg/kg/injection, schedule: Q04DX002 (ip), vehicle: Klucel (hydroxypropylcellulose) (HPC)",97 % of control
same,T/C,"dose: 200.0 mg/kg/injection, schedule: Q04DX002 (ip), vehicle: Klucel (hydroxypropylcellulose) (HPC)",102 % of control
same,T/C,"dose: 400.0 mg/kg/injection, schedule: Q04DX002 (ip), vehicle: Klucel (hydroxypropylcellulose) (HPC)",94 % of control
CCCCCCCCCCCCCCCC(=O)Nc1ccc(Cl)cc1,T/C,[4],94 % of control
same,T/C,"dose: 200.0 mg/kg/injection, schedule: Q04DX002 (ip), vehicle: saline with Tween-80",94 % of control
same,T/C,"dose: 400.0 mg/kg/injection, schedule: Q04DX002 (ip), vehicle: saline with Tween-80",97 % of control
O=CNCCNC=O,T/C,"dose: 100.0 mg/kg/injection, schedule: Q01DX009 (ip), vehicle: saline",102 % of control
same,T/C,"dose: 200.0 mg/kg/injection, schedule: Q01DX009 (ip), vehicle: saline",104 % of control
same,T/C,[5],98 % of control
CCCCCCC(/C=N/N=C(N)N)=N\N=C(N)N,T/C,"dose: 15.0 mg/kg/injection, schedule: Q01DX Z (ip), vehicle: carboxymethylcellulose (CMC)",100 % of control
same,T/C,"dose: 15.0 mg/kg/injection, schedule: Q01DX Z (oral), vehicle: carboxymethylcellulose (CMC)",101 % of control
same,T/C,"dose: 30.0 mg/kg/injection, schedule: Q01DX Z (ip), vehicle: carboxymethylcellulose (CMC)",95 % of control
same,T/C,"dose: 30.0 mg/kg/injection, schedule: Q01DX Z (oral), vehicle: carboxymethylcellulose (CMC)",93 % of control
same,T/C,"dose: 60.0 mg/kg/injection, schedule: Q01DX Z (oral), vehicle: carboxymethylcellulose (CMC)",109 % of control
CC(CO)CCC(=O)C(C)C1C(=O)CC2CC3CC(O)CCC3(C)CC21C (centres undefined),T/C,"dose: 100.0 mg/kg/injection, schedule: Q01DX001 (ip), vehicle: Klucel (hydroxypropylcellulose) (HPC)",98 % of control
same,T/C,"dose: 200.0 mg/kg/injection, schedule: Q01DX001 (ip), vehicle: Klucel (hydroxypropylcellulose) (HPC)",105 % of control
same,T/C,"dose: 400.0 mg/kg/injection, schedule: Q01DX001 (ip), vehicle: Klucel (hydroxypropylcellulose) (HPC)",119 % of control
CC(C)C(C=NCC(CCN1CCOCC1)(c1ccc2ccccc2c1)C(C)C)(CCN1CCOCC1)c1ccc2ccccc2c1 (centres undefined),T/C,"dose: 25.0 mg/kg/injection, schedule: Q04DX002 (ip), vehicle: saline with Tween-80",92 % of control
same,T/C,"dose: 50.0 mg/kg/injection, schedule: Q04DX002 (ip), vehicle: saline with Tween-80",98 % of control
same,T/C,[4],92 % of control
C/C(C(=O)O)=C(/Br)c1ccc([N+](=O)[O-])cc1,T/C,"dose: 100.0 mg/kg/injection, schedule: Q01DX009 (ip), vehicle: Klucel (hydroxypropylcellulose) (HPC)",94 % of control
same,T/C,[1],94 % of control
same,T/C,"dose: 200.0 mg/kg/injection, schedule: Q01DX009 (ip), vehicle: Klucel (hydroxypropylcellulose) (HPC)",95 % of control
same,T/C,[2],100 % of control
same,T/C,"dose: 400.0 mg/kg/injection, schedule: Q01DX009 (ip), vehicle: Klucel (hydroxypropylcellulose) (HPC)",92 % of control
same,T/C,[3],100 % of control
COC(=O)c1[nH]cnc1/N=N/N(C)CCO,T/C,"dose: 88.0 mg/kg/injection, schedule: Q01DX001 (ip), vehicle: saline",95 % of control
same,T/C,"dose: 100.0 mg/kg/injection, schedule: Q01DX001 (ip), vehicle: saline",104 % of control
same,T/C,"dose: 133.0 mg/kg/injection, schedule: Q01DX001 (ip), vehicle: saline",97 % of control
same,T/C,"dose: 200.0 mg/kg/injection, schedule: Q01DX001 (ip), vehicle: saline",101 % of control and 107 % of control
same,T/C,"dose: 267.0 mg/kg/injection, schedule: Q01DX009 (ip), vehicle: saline",109 % of control
same,T/C,"dose: 300.0 mg/kg/injection, schedule: Q01DX001 (ip), vehicle: saline",103 % of control
same,T/C,"dose: 400.0 mg/kg/injection, schedule: Q01DX001 (ip), vehicle: saline",102 % of control
same,T/C,[5],100 % of control
same,T/C,"dose: 600.0 mg/kg/injection, schedule: Q01DX009 (ip), vehicle: saline",109 % of control
same,T/C,"dose: 600.0 mg/kg/injection, schedule: Q01DX015 (ip), vehicle: saline",157 % of control
same,T/C,"dose: 900.0 mg/kg/injection, schedule: Q01DX009 (ip), vehicle: saline",111 % of control
